According to US20220390432A1, “METHODS OF CHARACTERIZING AND UTILIZING AGENT-CONDENSATE INTERACTIONS” (Whitehead Institute for Biomedical Research, priority 2019, published 2022):
“Also recorded” adds a separate entry of the source.

Legend:
MED1 droplets = molecular target: T1, MED1 droplets (Homo sapiens, UniProt Q15648); experiment: In vitro droplet drug chase out experiment; assay type: binding; settings: 100 μM FLTX1, 10-fold excess (1 mM) tamoxifen
T1 construct: MED1—amino acids 600-1581; 6xHis (N); made in house; host or cells: LOBSTR cells (E. coli)
T1 sequence (Q15648 600-1581): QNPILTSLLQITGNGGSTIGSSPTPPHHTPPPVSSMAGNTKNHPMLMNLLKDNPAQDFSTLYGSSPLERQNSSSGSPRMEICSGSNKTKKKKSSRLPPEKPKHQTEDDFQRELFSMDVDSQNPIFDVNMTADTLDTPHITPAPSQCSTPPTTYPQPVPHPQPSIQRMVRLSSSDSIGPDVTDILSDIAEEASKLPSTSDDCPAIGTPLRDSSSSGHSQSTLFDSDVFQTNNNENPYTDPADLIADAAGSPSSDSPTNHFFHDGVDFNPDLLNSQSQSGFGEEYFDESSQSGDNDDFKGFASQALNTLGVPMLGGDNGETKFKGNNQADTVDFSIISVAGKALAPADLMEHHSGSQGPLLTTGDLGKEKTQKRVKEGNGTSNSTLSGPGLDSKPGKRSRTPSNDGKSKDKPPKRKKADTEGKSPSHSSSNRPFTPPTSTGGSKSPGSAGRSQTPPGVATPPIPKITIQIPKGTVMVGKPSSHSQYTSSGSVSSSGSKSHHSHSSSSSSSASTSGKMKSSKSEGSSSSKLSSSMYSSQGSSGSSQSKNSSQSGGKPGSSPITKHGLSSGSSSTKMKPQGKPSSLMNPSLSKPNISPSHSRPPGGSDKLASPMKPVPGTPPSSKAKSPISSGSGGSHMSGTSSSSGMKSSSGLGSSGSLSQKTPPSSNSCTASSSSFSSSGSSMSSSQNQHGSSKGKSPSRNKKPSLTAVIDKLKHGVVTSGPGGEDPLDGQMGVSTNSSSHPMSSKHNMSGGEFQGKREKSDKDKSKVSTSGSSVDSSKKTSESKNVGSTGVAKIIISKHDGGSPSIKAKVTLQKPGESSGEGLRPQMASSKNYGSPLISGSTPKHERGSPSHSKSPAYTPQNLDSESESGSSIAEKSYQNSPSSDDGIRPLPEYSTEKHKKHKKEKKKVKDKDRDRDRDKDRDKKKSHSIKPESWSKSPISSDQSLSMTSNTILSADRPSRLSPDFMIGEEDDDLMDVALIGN
Procedure: For chase-out experiments 5 μM labeled cisplatin-TR was added to a MED1 droplets reaction (10 μM MED1, 50 mM Tris-HCl pH 7.5, 10% glycerol, 1 mM DTT, 10% PEG) in order to form MED1 droplets concentrated with Cisplatin-TR. Unlabeled transplatin or unlabeled cisplatin (vehicle, 10 μM, 100 μM, or 500 μM) were added to the droplet mixture and the amount of labeled cisplatin-TR remaining in the droplet is measured after chase out. 100 μM fluorescent FLTX1 was added to a MED1 droplets reaction (10 μM MED1, 50 mM Tris-HCl pH 7.5, 10% glycerol, 1 mM DTT, 10% PEG) in order to form MED1 droplets concentrated with FLTX1.

[1] = tested on: patient-derived ERα mutants and MED1; experiment: In vitro droplet assay of patient-derived ERα mutants with MED1; assay type: biochemical, human; settings: 100 μM estrogen, 100 μM tamoxifen
[2] = tested on: ERα-MED1 condensate at the Lac array in U2OS cells; experiment: Lac array assay with tethered ER, MED1 immunofluorescence; assay type: cell-based, human; settings: for effect on ER/MED1 condensate at the Lac array: tethered ER, estrogen
Description: When the transcriptional apparatus is recruited to that site a mediator condensate is detectable by immunofluorescence (Middle) U20S-Lac cells were transfected with a construct expressing the Lac DBD fused to the ER LBD and GFP+/− a construct overexpressing MED1. […] (Right) Quantification of MED1 enrichment relative at the Lac array, error bars represent SD.
Constructs were assembled by NEB HIFI cloning in pSV2 mammalian expression vector containing an SV40 promoter driving expression of a mCherry-LacI fusion protein. The intrinsically disordered region of MED1, HP1α, or the activation domain of ESR1 was fused by the c-terminus to this recombinant protein, joined by the linker sequence […] (SEQ ID NO: 16). For experiments comparing FLTX1 enrichment at the array, U20S-Lac cells were plated onto chambered coverglass (1.5 Borosilicate Glass, Nunc Lab-Tek, 155409) and transfected with either MED1 IDR or HP1α constructs with lipofectamine 3000 (Thermofisher L3000015). After 24 hours, cells were treated with either 1 uM FLTX1 or vehicle (DMF). After 30 minutes, cells were imaged on the Zeiss LSM 880 confocal microscope with Airyscan detector with 63× objective at 37° C. For experiments with high MED1, cells grown in DMEM were plated on glass coverslips and transfected using lipofectamine 3000 (Thermofisher L3000015). A construct with a mammalian expression vector containing a PGK promoter driving the expression of MED1 fused to GFP was co-transfected in high MED1 conditions. […]
For analysis of Lac array data comparing MED1 or HP1α tethered, a region of interest was called using the signal in the Lac array (561 channel). The average fluorescent signal for FLTX1 (488 channel) was then measured in the region of interest and divided by the average fluorescence in the region of interest at the Lac array. […] For analysis of Lac array data for MED1 overexpression, enrichment was calculated by dividing the average fluorescent signal for MED1 immunofluorescence at the region of interest, defined by the ER tethered at the lac array, by MED1 immunofluorescence signal at a random nuclear region.

ERα point mutations = settings: reference (52); cited from earlier work
[3] = tested on: MED1 condensates at MYC in MCF7 cells; experiment: Immunofluorescence with DNA FISH, MED1 condensates at the MYC oncogene; assay type: cell-based, human; settings: estrogen-starved MCF7 treated with estrogen or estrogen and tamoxifen
Procedure: MCF7 cells were grown in estrogen-free DMEM for 3 days on Poly-L-ornithine coated coverslips in 24 well plates at an initial seeding density of 50,000 cells per well. Cells were then treated with vehicle, 10 uM estradiol, or 10 uM estradiol and 5 uM 4-hydroxytamoxifen for 45 minutes.
Cells on cover slips were then fixed in 4% paraformaldehyde. Immunofluorescence was performed as described above. After incubating the cells with the secondary antibodies, cells were washed three times in PBS for 5 min at RT, fixed with 4% PFA in PBS for 10 min and washed three times in PBS. Cells were incubated in 70% ethanol, 85% ethanol and then 100% ethanol for 1 minute at RT. Probe hybridization mixture was made mixing […], of FISH Hybridization Buffer (Agilent G9400A), 1 μl of FISH probes (SureFISH 8q24.21 MYC 294 kb G101211R-8) and 2 μL of water.
5 μL of mixture was added on a slide and coverslip was placed on top (cell-side toward the hybridization mixture). Coverslip was sealed using rubber cement. Once rubber cement solidified, genomic DNA and probes were denatured at 78° C. for 5 minutes and slides were incubated at 16° C. in the dark O/N. The coverslip was removed from slide and incubated in pre-warmed Wash Buffer 1 (Agilent, G9401A) at 73° C. for 2 minutes and in Wash Buffer 2 (Agilent, G9402A) for 1 minute at RT. […]

CC/C(=C(\c1ccccc1)c1ccc(OCCN(C)C)cc1)c1ccccc1 [tamoxifen]
chase out of FLTX1 from MED1 droplets (MED1 droplets): diluted out | chase out of FLTX1 from MED1 droplets (MED1 droplets; listed as Tamoxifen): able to chase-out FLTX1 | disruption of ERα mutant/MED1 condensates [1]: not disrupted | effect on ERα-MED1 condensate at the Lac array when MED1 is overexpressed ([2]; MED1 overexpressed): unable to dissociate the ERα-MED1 condensate | effect on ER/MED1 condensate at the Lac array [2]: eliminated by tamoxifen | effect on ER/MED1 condensate at the Lac array ([2]; listed as Tamoxifen): reduced ER (green) and MED1 (red) containing condensates | reduction of affinity for tamoxifen by ERα point mutations (ERα point mutations): approximately 10 fold | MED1 condensates at the MYC oncogene [3]: reduces these; also recorded: not in the absence of estrogen or in the presence of estrogen and tamoxifen
